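Protocol summary: plate cells (96-well), add compound at 5 concentrations, incubate 48 h, interpolate endpoints linearly. TGI is the concentration that stops growth completely.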
How the values were obtained:
Assay in all cases: inhibition of tumour cell growth, NCI panel, 48 h
SW-620 colon = system: SW-620 colon
HL-60(TB) leukemia = system: HL-60(TB) leukemia
COLO 205 colon = system: COLO 205 colon
NCI-H226 lung = system: NCI-H226 lung
HCC-2998 colon = system: HCC-2998 colon
SK-MEL-5 melanoma = system: SK-MEL-5 melanoma
UACC-257 melanoma = system: UACC-257 melanoma
OVCAR-4 ovarian = system: OVCAR-4 ovarian
NCI/ADR-RES ovarian = system: NCI/ADR-RES ovarian
SF-539 CNS = system: SF-539 CNS
T-47D breast = system: T-47D breast
TK-10 renal = system: TK-10 renal
DU-145 prostate = system: DU-145 prostate
NCI-H522 lung = system: NCI-H522 lung
K-562 leukemia = system: K-562 leukemia

Row | Compound | TGI (SW-620 colon) | TGI (HL-60(TB) leukemia) | TGI (COLO 205 colon) | TGI (NCI-H226 lung) | TGI (HCC-2998 colon) | TGI (SK-MEL-5 melanoma) | TGI (UACC-257 melanoma) | TGI (OVCAR-4 ovarian) | TGI (NCI/ADR-RES ovarian) | TGI (SF-539 CNS) | TGI (T-47D breast) | TGI (TK-10 renal) | TGI (DU-145 prostate) | TGI (NCI-H522 lung) | TGI (K-562 leukemia)
1 | CC(C)(C)OC(=O)N1C(C2=COc3ccccc3O2)=COc2ccccc21 | 67.8 µM | 45.5 µM | 38.2 µM | 88.8 µM | 37.2 µM | 64.4 µM | 78 µM | > 100 µM | 82.3 µM | 41.2 µM | 50.4 µM | > 100 µM | 78.2 µM | 40.8 µM | 57 µM
2 | C/C(Cl)=N\OC(=O)Nc1ccc([N+](=O)[O-])cc1 | 4.06 µM | 4.09 µM | 5.85 µM | > 100 µM | 29.8 µM | 31.2 µM | 30.9 µM | 28.2 µM | 29.3 µM | 31.8 µM | 36.8 µM | 27.8 µM | 31.8 µM | 3.75 µM | 4.22 µM
3 | CCCCC1Cc2cc(O)ccc2-c2n1c1cc(O)ccc1[n+]2C (stereo not given) (tested in a mixture with another compound) | > 100 µM | > 86.4 µM | 44.2 µM | > 100 µM | > 100 µM | 22 µM | 80 µM | 97.6 µM | > 100 µM | > 100 µM | > 100 µM | > 100 µM | > 100 µM | > 47.4 µM | > 100 µM
4 | CCCCc1ccc(Nc2nc3c(ncn3C3OC(COC(C)=O)C(OC(C)=O)C3OC(C)=O)c(=O)[nH]2)cc1 (stereo not given) | 48.2 µM | 55.6 µM | 37.7 µM | 60.6 µM | 35.5 µM | 31.1 µM | 34.3 µM | 52.9 µM | > 100 µM | 57.9 µM | 30 µM | > 100 µM | 90.6 µM | 32.8 µM | 38.5 µM
5 | CCOC(=O)C(SCCO)C(C(=O)OCC)n1ccc(N)nc1=O (stereo not given) | > 100 µM | > 100 µM | > 100 µM | > 100 µM | > 100 µM | > 100 µM | > 100 µM | > 100 µM | > 100 µM | > 100 µM | > 100 µM | > 100 µM | > 100 µM | > 100 µM | > 100 µM
6 | CCOC(=O)/C(C(=S)NC)=C(/N)N1CCCC1 | > 100 µM | > 100 µM | > 100 µM | > 100 µM | > 100 µM | > 100 µM | > 100 µM | > 100 µM | > 100 µM | > 100 µM | > 100 µM | > 100 µM | > 100 µM | > 100 µM | > 100 µM
7 | C/C(CC(O)(C(F)(F)F)C(F)(F)F)=N\N | > 10 µM | > 10 µM | > 10 µM | > 10 µM | > 10 µM | > 10 µM | > 10 µM | > 10 µM | > 10 µM | > 10 µM | > 10 µM | > 10 µM | > 10 µM | > 10 µM | > 10 µM
8 | O=[N+]([O-])c1cc2n[nH]nc2c2nonc12 | > 100 µM | 61.3 µM | 71.5 µM | 40.9 µM | 38.7 µM | 24.7 µM | 63 µM | > 100 µM | > 100 µM | 56 µM | > 100 µM | > 100 µM | > 100 µM | 32.6 µM | > 100 µM
9 | COc1cc(/C=C2\C(=O)N(c3cccc(Cl)c3)C(c3ccccc3)S2(=O)=O)cc(OC)c1OC (stereo not given) | > 100 µM | > 100 µM | > 100 µM | > 100 µM | > 100 µM | > 100 µM | > 100 µM | > 100 µM | > 100 µM | > 100 µM | > 100 µM | > 100 µM | > 100 µM | 55.8 µM | > 100 µM
10 | CC(C)OP(=O)(OC(C)C)C(C(F)(F)F)C(F)(F)F | > 100 µM | > 100 µM | > 100 µM | > 100 µM | > 100 µM | > 100 µM | > 100 µM | > 100 µM | > 100 µM | > 100 µM | > 100 µM | > 100 µM | > 100 µM | > 100 µM | > 100 µM
11 | NS(=O)(=O)c1nnc(NC(=O)CCC(=O)O)s1 | > 100 µM | > 100 µM | > 100 µM | > 100 µM | > 100 µM | > 100 µM | > 100 µM | > 100 µM | > 100 µM | > 100 µM | > 100 µM | > 100 µM | > 100 µM | > 100 µM | > 100 µM
12 | COc1cc2c(cc1C)NC(=O)/C2=C/c1c(Cl)[nH]c2cc(C)c(OC)cc12 | 19.7 µM | 3.39 µM | 12.7 µM | 50.6 µM | 11 µM | 10.6 µM | 23.7 µM | 18 µM | 13.5 µM | 1.33 µM | 25.8 µM | 18 µM | 14.8 µM | 19.8 µM | > 41.6 µM
13 | COc1ccc(C2CCc3nc4nc(N)nc(N)c4cc3C2)cc1 (stereo not given) | > 100 µM | > 100 µM | > 100 µM | > 100 µM | > 100 µM | > 100 µM | > 100 µM | 67.4 µM | > 100 µM | 30.9 µM | 44.7 µM | 24.9 µM | > 100 µM | > 100 µM | > 100 µM
14 | CS(C)(=O)=N/C=C\C(=O)C(Cl)(Cl)Cl | > 100 µM | > 100 µM | > 100 µM | > 100 µM | > 100 µM | > 100 µM | > 100 µM | > 100 µM | > 100 µM | > 100 µM | > 100 µM | > 100 µM | > 100 µM | > 100 µM | > 100 µM
15 | O=C1CCc2c3c(c4c([nH]c5ccccc54)c2CC1)C(=O)NC3=O | > 100 µM | 17.2 µM | > 100 µM | 23.7 µM | > 100 µM | 5.77 µM | 19.5 µM | 13.1 µM | > 100 µM | > 100 µM | 6.01 µM | 39.6 µM | 42.9 µM | 9.3 µM | > 100 µM
16 | Nc1[nH]c(=O)nc2sc3c(c12)CCCC3 | > 100 µM | > 100 µM | > 100 µM | 88.8 µM | > 100 µM | > 100 µM | > 100 µM | > 100 µM | > 100 µM | > 100 µM | > 100 µM | > 100 µM | > 100 µM | > 100 µM | > 100 µM
17 | O=C(CSc1nc2ccc(I)cc2c(=O)n1Cc1ccccc1)N/N=C/c1ccccc1 | > 100 µM | > 100 µM | > 100 µM | 95.9 µM | > 100 µM | > 100 µM | > 100 µM | > 100 µM | 92 µM | > 100 µM | 79.9 µM | 36.1 µM | > 100 µM | 40 µM | > 100 µM
18 | NC(=O)c1cnc2sc3ccccc3n2c1=O | > 100 µM | > 100 µM | > 100 µM | > 100 µM | > 100 µM | > 100 µM | > 100 µM | > 100 µM | > 100 µM | > 100 µM | > 100 µM | > 100 µM | > 100 µM | > 100 µM | > 100 µM

Reference: PubChem BioAssay (NCI)
